On to `Cc1c(-c2ccc(F)cc2)n(Cc2ccc(OCCN3CCCCCC3)cc2)c2ccc(O)cc12`, for which the melting point was 181 to 184 °C.
For `COc1ccc(C(=O)c2ccc(CBr)cc2)cc1`, the melting point fell in the range of 76 to 78 °C.
Consider `CS(=O)c1ccc(-n2cnc3ccc(-c4nnc(SCc5cccc(F)c5)o4)cc32)cc1` (configuration not stated), for which the melting point was in the range of 137 to 138 °C.
Next, `CN1C(=O)CN=C(c2ccccc2F)c2cc(NC(=O)N(CCOC(C)(C)C)Cc3ccccc3)ccc21`: 82 to 86 °C; `CC(C)c1cccc(C(C)C)c1NC(=O)C1c2ccccc2OCc2nc(Br)ccc21` (configuration not stated): 151 to 153 °C.
As to `O=C(Nc1ccc(-c2ncc(-c3cccc(NC(=O)c4ccccn4)c3)[nH]2)cc1)c1ccccn1`, the melting point was 255 to 257 °C.
`N#Cc1ncccc1CCc1cccc(Cl)c1` returned a melting point of 72 to 73 °C.
In turn, `CC(C)(C)CC(C)(C)Nc1cc(Cl)ccc1[N+](=O)[O-]` showed a melting point of 108 °C.
Take `Cc1cnc(-n2ccc(C(F)(F)F)n2)nc1Oc1csc(C(F)(F)F)c1`: the melting point lay within 113 to 115 °C.
As to `COc1ccc(C(=O)Cc2c(Cl)cncc2Cl)c2c(CC(=O)OCc3ccccc3[N+](=O)[O-])coc12`, the melting point lay in the range of 200 to 201 °C.
Consider `COc1ccc(-c2cc(CBr)c(=O)n(Cc3ccc(F)cc3)n2)cc1F`, for which the melting point lay in the range of 120 to 125 °C.
Regarding `COc1c(C(=O)c2ccc([N+](=O)[O-])cc2Cl)c(C)nn1C`, the melting point lay within 97 to 98 °C.
The compound `COc1ccc(N2CCN(c3c(C)c(C)c4c(c3C)CC(C)(CN(Cc3ccccc3)Cc3ccccc3)O4)CC2)cc1` (configuration not stated) yielded a melting point of 168 to 170 °C.
`c1ccc2cc(OCc3ccc4ccccc4n3)ccc2c1` showed a melting point of 100 to 102 °C.
On to `Oc1cc(O)nc(C(F)(F)F)n1`, for which the melting point was 255 to 256 °C.
Next, `CCc1ccc2c(-c3ccccc3)onc2c1`: 41 to 43 °C; `O=C(Cn1c(=O)c2cc(Cl)ccc2n(Cc2ccc(Cl)cc2Cl)c1=O)OCCO`: 167 to 168 °C.
`COc1c(Cl)ccc(Cl)c1C(=O)NN`: the melting point is 144 to 145 °C.
`Cc1cc(OCC2(O)CCS(=O)(=O)CC2)cc(C)c1-c1cccc(CNc2ccc(CCC(=O)O)c(F)c2)c1` returned a melting point of 178 °C.
Next, `COc1cc2c(cc1OCc1ccccc1)[nH]c1cc(-c3ccccc3Cl)c3c(c12)C(=O)NC3=O`: 260 to 264 °C; `Cc1nnc2ccc(-c3ccc(F)cc3)nn12`: 227 to 229 °C.
As for `CCCCCCOc1ccc(-c2cc(CBr)ccc2CBr)cc1`, the melting point was in the range of 38.5 to 40.5 °C.
In turn, `CC(C)(C)OC(=O)NCC(=O)NNc1ccc(N)cc1` gave a melting point of 144 °C.
Consider `Cc1nc(C)c(-c2ccnc(Nc3cccc(S(=O)(=O)NCCO)c3)n2)s1`, for which the melting point was 184 to 186 °C.
Consider `O=C(Nc1ccccc1)OC1C=CC2COC1O2` (configuration not stated), for which the melting point lay in the range of 107 to 109 °C.
Turning to `CN(C)CCCCCCOc1ccc(C(=O)CCc2ccccc2)cc1`, the melting point fell in the range of 27 to 28 °C.
Next, `N#CNC(=S)Nc1cccc([N+](=O)[O-])c1`: over 210 °C; `CC(CO)(CO)Nc1ccc([N+](=O)[O-])cc1`: 120 °C; `CCOC(=O)c1c(Cl)c(-c2ncc(Cl)cc2F)nn1C`: 77 to 79 °C.
Take `O=C1NC(=O)C(c2ccccc2Cl)C1c1cc2c3c(ccn3CCC2)c1` (configuration not stated): the melting point is 209 to 212 °C.
For the compound `CC(=O)Oc1ccc(O[C@@H]2CCN(C)C[C@H]2c2ccccc2)cc1` (relative stereo), the melting point lay in the range of 79.5 to 82 °C.
In turn, `CNC(Cc1cc(Cl)ccc1N)c1sccc1C` (configuration not stated) showed a melting point of 59 to 61 °C.
On to `Cc1ccc(NC(=O)C(=O)N2CCC(Cc3ccc(F)cc3)CC2)cc1`, for which the melting point lay in the range of 125 to 126 °C.
For `Cn1cc(-c2ccccc2)c(=O)c(-c2ccc(Cl)c(C(F)(F)F)c2)c1`, the melting point lay in the range of 154 to 155 °C.
Consider `Cc1cccc(NS(=O)(=O)c2ccc(N3CCNC3=O)cc2)c1C`, for which the melting point was 231 to 232 °C.
`CO[C@](C)(c1cc(F)cc(OCc2ccc3ccccc3c2)c1)[C@H](C)O` (racemic) returned a melting point of 62 to 63 °C.
With `O=C1Nc2cc3c(cc2OC1CCCBr)CCCC3` (configuration not stated), the melting point fell in the range of 139 to 140 °C.
On to `CCOC(=O)c1cn(CC)c2sc(C)cc2c1=O`, for which the melting point was in the range of 140 to 142 °C.
Next, `CCOC(=O)COc1c(C)cc(C(OC)(C(F)(F)F)C(F)(F)F)cc1C`: 97 to 98 °C; `COC(=O)COc1ccc(OC/C=C(/c2ccc(I)cc2)c2ccc3oc(C)cc3c2)cc1C`: 121 to 128 °C.
Regarding `Cn1cc(-c2noc(C(N)CN3CCCCC3)n2)c2ccccc21` (configuration not stated), the melting point is 146 to 147 °C.
Turning to `CCCCCCCCCCCCCCCC[C@]1(CO)CC(=O)N1`, the melting point came to 82 °C.
With `N#CC1CN(C(=O)[C@H](NC(=O)c2c[nH]c3ncc(-c4ccc(N5CCOCC5)cc4)nc23)C2CC2)C1` the figure was 186 to 192 °C; with `CCOCCS(=O)(=O)N1CC[C@@H](C(=O)N(C)Cc2cc(C(F)(F)F)cc(C(F)(F)F)c2)[C@H](c2ccc(F)cc2C)C1` (relative stereo), 151 to 153 °C.
With `O=c1[nH][nH]c(=O)c2c(O)c3ccc([N+](=O)[O-])cc3nc12` the figure was over 400 °C; with `CCCCOc1ccc2[nH]c3c([N+](=O)[O-])ccc(Cl)c3c(=O)c2c1`, 154 to 155 °C.
Take `CNCC(O)c1ccc(Cl)cc1` (configuration not stated): the melting point fell in the range of 84 to 86 °C.
Next, `CC(O)(c1ccccc1)c1cc(Cl)ccc1O` (configuration not stated): 106 °C.
Compound `O=C(c1ccccc1)N1CCC(C(Nc2ccc(F)cc2)c2ccc(F)cc2)CC1` (configuration not stated) displayed a melting point of 157 to 158 °C.
With `C=CCNCC(COc1cccc2c1CC(=O)N2)OC(=O)C12CC3CC(CC(C3)C1)C2` (configuration not stated), the melting point was 170 to 172 °C.
`N#Cc1ccc2nc(CCl)[nH]c2c1`: the melting point lay in the range of 144 to 146 °C.
The compound `COc1cc(C(=O)NS(=O)(=O)c2ccccc2C)ccc1Cn1cc(/C=C/C(=O)N2CCCC2)c2ccc(/C=C/C(=O)N3CCCC3)cc21` registered a melting point of 297 to 299 °C.
With `COc1cc2[nH]c3ncnc(N4CCNCC4)c3c2cc1OC`, the melting point was 185 °C.
Consider `CC(=O)Nc1c2oc3cc(Cl)ccc3c2nn1C`, for which the melting point lay in the range of 290 to 300 °C.
`Fc1ccc(-c2cccc(-c3cn([C@H]4CN5CCC4CC5)nn3)c2)cn1` displayed a melting point of 164 °C.
For the compound `COc1ccc2nc3c(cc2c1)c(N)nn3CC(=O)N(C)C`, the melting point lay in the range of 251 to 253 °C.
For `COc1cccc(C(=O)c2ccc(F)cc2F)c1`, the melting point was 50 to 52 °C.
Regarding `O=C(O)c1ccc(S(=O)(=O)Oc2ccc(-c3ccc(-c4c(C(=O)c5ccccc5)oc5ccccc45)cc3)cc2C2CCCC2)cc1O`, the melting point is 105 to 108 °C.
Compound `CC(C)(C)OC(=O)N1c2ncc(Br)cc2C=CC1N` (configuration not stated) displayed a melting point of over 230 °C.
With `NC1Cc2cccc3[nH]c(=O)n(c23)C1` (configuration not stated) the figure was over 300 °C; with `CC(CF)(CF)C(O)C(Oc1ccc(Cl)cc1)n1cncn1` (configuration not stated), 97 to 102 °C; with `CC(C)n1nc(-c2sc(NC(=O)c3ccc(CN(C)C)cc3)nc2-c2ccccc2)ccc1=O`, 246 to 248 °C.

In general, melting point refers to the temperature of the solid-liquid transition.
